The source of these data is article PMC11923649, “Novel C-2 Aromatic Heterocycle-Substituted Triterpenoids Inhibit Hedgehog Signaling in GLI1 Overexpression Cancer Cells” (ACS Omega, 2025).

pIC50: −log10 of the molar value.

In experiment [1] the test system is A549 (lung adenocarcinoma). Nature of the experiment: MTS cytotoxicity assay, 72 h, A549. The format is cell-based. The following applies: Homo sapiens, A549, 72 h. The essentials: (§1)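 Cells were exposed to compounds for 72 h at 50–0.0975 μmol/L (2-fold dilutions), then MTS/phenazine methosulfate was added for 1–4 h. Absorbance read at 490 nm; IC50 derived from concentration-response.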
(In general: Formazan colour is commonly taken as a measure of viable cells.)

The next experiment relates to DU-145 (prostate cancer). Nature of the experiment: MTS cytotoxicity assay, 72 h, DU-145. The format is cell-based, human. To be noted: Homo sapiens, DU-145, 72 h. The essentials:
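Cells were seeded and, the next day, exposed to compounds at 50–0.0975 μmol/L in 2-fold dilutions for 72 h at 37 °C, 5% CO2. MTS/phenazine methosulfate was then added for 1–4 h, absorbance was read at 490 nm, and IC50 values were derived.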

For experiment [2], the system named is K562 (chronic myelogenous leukemia). Nature of the experiment: MTS cytotoxicity assay, 72 h, K562. The format is cell-based. The following applies: Homo sapiens. In a few lines:
as §1

The subject of a further experiment is K562-TAX. Nature of the experiment: MTS cytotoxicity assay, 72 h, K562-TAX. The format is cell-based.
Another experiment relates to HCT 116. Nature of the experiment: MTS cytotoxicity assay, 72 h, HCT 116. The format is cell-based. To be noted: Homo sapiens, HCT-116, 72 h. In a few lines: as §1
The test system of the next experiment is HCT116 p53–/–. In words: MTS cytotoxicity assay, 72 h, HCT116 p53–/–. The format is cell-based. To be noted: Homo sapiens, HCT-116, 72 h. The essentials: as §1
A further experiment concerns U2OS. In words: MTS cytotoxicity assay, 72 h, U2OS. The format is cell-based. To be noted: Homo sapiens.
A further experiment relates to CCRF-CEM. Nature of the experiment: MTS cytotoxicity assay, 72 h, CCRF-CEM. The format is cell-based. To be noted: for pIC50: Homo sapiens, CCRF-CEM, 72 h, MTS; for SI (selectivity index): IC50 of CCRF-CEM line vs average of both fibroblasts (BJ and MRC-5). The essentials:
as §1

A further experiment has as its system CEM-DNR. Nature of the experiment: MTS cytotoxicity assay, 72 h, CEM-DNR. The format is cell-based. The following applies: Homo sapiens.
For experiment [3], the system named is BJ human skin fibroblasts. In words: MTS cytotoxicity assay, 72 h, BJ fibroblasts. To be noted: normal fibroblasts; for pIC50: Homo sapiens, Skin fibroblast. The format is cell-based. The essentials:
as §1

The next experiment concerns MRC-5 lung fibroblasts. In words: MTS cytotoxicity assay, 72 h, MRC-5 fibroblasts. The format is cell-based, human. To be noted: normal fibroblasts; for pIC50: Homo sapiens, MRC5, 72 h. In a few lines: as §1

Usually pIC50 stands for the negative decadic logarithm of the IC50, by convention in mol/L. The low end stands for a high IC50, the high end for a low IC50. `C=C(C)[C@@H]1CC[C@]2(C(=O)O)CC[C@]3(C)C(CCC4[C@@]5(C)C=C(c6cccnc6)C(=O)C(C)(C)C5CC[C@]43C)C12` (some centres unmarked) [Compound 11g, 2-(Pyridin-3-yl)-3-oxolupa-1,20(29)-dien-28-oic acid]: the negative logarithm of the IC50 (pIC50) in [1] (Table 1) was 4.46; in experiment [1] (full Table S1), 4.46; in the experiment on DU-145 (prostate cancer) (Table 1), 4.96; in the experiment with DU-145 (prostate cancer) (full Table S1), 4.95; in [2] (Table 1), below 4.30; in the experiment with K562-TAX (Table 1), 4.70. Besides, the negative logarithm of the IC50 (pIC50) in the experiment with HCT 116 (Table 1) is 4.47; in the experiment on HCT 116 (full Table S1) it was 4.47; with HCT116 p53–/– (Table 1), 4.40; in the experiment on HCT116 p53–/– (full Table S1), 4.40; in the experiment on U2OS (Table 1) it was 4.36; in the experiment with U2OS (full Table S1), 4.35. The pIC50 in the experiment with CCRF-CEM (Table 1) is 4.74; in the experiment with CCRF-CEM (full Table S1), 4.74; with CEM-DNR (Table 1) it was 4.68; in the experiment with CEM-DNR (full Table S1) it was 4.69; in experiment [3] (Table 1), below 4.30; with MRC-5 lung fibroblasts (Table 1) it was below 4.30. For the same molecule, in the experiment on CCRF-CEM (Table 1), the “SI (selectivity index)” value is on record as above 2.8. For the same molecule, the “IC50 BJ” value in [3] (Table 1) is recorded as “below the detection limit”. In addition, the “IC50 MRC-5” value in the experiment with MRC-5 lung fibroblasts (Table 1) is “below the detection limit”.
On to `C=C(C)[C@@H]1CC[C@]2(C(=O)O)CC[C@]3(C)C(CCC4[C@@]5(C)C=C(c6ccncc6)C(=O)C(C)(C)C5CC[C@]43C)C12` (some centres unmarked) [Compound 11h, 2-(Pyridin-4-yl)-3-oxolupa-1,20(29)-dien-28-oic acid], for which the pIC50 is 4.68 in experiment [1] (Table 1); 4.67 in [1] (full Table S1); 4.96 in the experiment with DU-145 (prostate cancer) (Table 1); 4.97 in the experiment on DU-145 (prostate cancer) (full Table S1); below 4.30 in experiment [2] (Table 1); 4.96 with K562-TAX (Table 1). The pIC50 was 4.97 with K562-TAX (full Table S1); 4.60 in the experiment on HCT 116 (Table 1); 4.60 in the experiment with HCT 116 (full Table S1); 4.51 with HCT116 p53–/– (Table 1); 4.51 in the experiment on HCT116 p53–/– (full Table S1); 4.55 in the experiment with U2OS (Table 1). For the same molecule, the pIC50 with U2OS (full Table S1) is 4.55; with CCRF-CEM (Table 1), 5.28; with CEM-DNR (Table 1) it was 4.77; in [3] (Table 1), below 4.30; with MRC-5 lung fibroblasts (Table 1), below 4.30. For the same molecule, in the experiment with CCRF-CEM (Table 1), the “SI (selectivity index)” value is given as above 9.5. Further, in [3] (Table 1), the “IC50 BJ” value is “below the detection limit”. In addition, the “IC50 MRC-5” value in the experiment on MRC-5 lung fibroblasts (Table 1) is “below the detection limit”.
With `C=C(C)[C@@H]1CC[C@]2(C(=O)O)CC[C@]3(C)C(CCC4[C@@]5(C)C=C(c6cncnc6)C(=O)C(C)(C)C5CC[C@]43C)C12` (some centres unmarked) [Compound 11i, 2-(Pyrimidin-5-yl)-3-oxolupa-1,20(29)-dien-28-oic acid], the negative logarithm of the IC50 (pIC50) in [1] (Table 1) was below 4.30; in the experiment on DU-145 (prostate cancer) (Table 1), 4.74; with DU-145 (prostate cancer) (full Table S1), 4.76; in experiment [2] (Table 1) it was below 4.30; in the experiment with K562-TAX (Table 1), 4.60; with HCT 116 (Table 1) it was 4.46. Moreover, the pIC50 was 4.46 in the experiment on HCT 116 (full Table S1); 4.39 in the experiment on HCT116 p53–/– (Table 1); below 4.30 in the experiment on U2OS (Table 1); 4.71 with CCRF-CEM (Table 1); 4.38 in the experiment on CEM-DNR (Table 1); 4.38 with CEM-DNR (full Table S1). Besides, the negative-log IC50 (pIC50) (in experiment [3] (Table 1); in the experiment with MRC-5 lung fibroblasts (Table 1)) was below 4.30 in each case. In the experiment on CCRF-CEM (Table 1), the “SI (selectivity index)” value is above 2.5.
`C=C(C)[C@@H]1CC[C@]2(C(=O)O)CC[C@]3(C)C(CCC4[C@@]5(C)C=C(c6ccc7c(c6)OCCO7)C(=O)C(C)(C)C5CC[C@]43C)C12` (some centres unmarked) [Compound 11j, 2-(1,4-Benzodioxan)-3-oxolupa-1,20(29)-dien-28-oic acid]: the pIC50 in experiment [1] (Table 1) was 4.85; in experiment [1] (full Table S1), 4.87; with DU-145 (prostate cancer) (Table 1) it was 5.15; in experiment [2] (Table 1) it was 5.12; in the experiment on K562-TAX (Table 1), 4.77; in the experiment on K562-TAX (full Table S1) it was 4.78. The negative-log IC50 (pIC50) with HCT 116 (Table 1) is 4.66; in the experiment with HCT 116 (full Table S1) it was 4.66; with HCT116 p53–/– (Table 1), 4.68; with HCT116 p53–/– (full Table S1), 4.68; in the experiment on U2OS (Table 1), 4.66; in the experiment with U2OS (full Table S1), 4.66. Also, the pIC50 is 5.31 in the experiment on CCRF-CEM (Table 1); 4.62 in the experiment with CEM-DNR (Table 1); below 4.30 in experiment [3] (Table 1); 4.55 in the experiment on MRC-5 lung fibroblasts (Table 1); 4.56 with MRC-5 lung fibroblasts (full Table S1). Moreover, in the experiment on CCRF-CEM (Table 1), the “SI (selectivity index)” value was above 7.9.
Consider `C=C(C)[C@@H]1CC[C@]2(C(=O)O)CC[C@]3(C)C(CCC4[C@@]5(C)C=C(c6cncc7ccccc67)C(=O)C(C)(C)C5CC[C@]43C)C12` (some centres unmarked) [Compound 11l, 2-(Isoquinoline)-3-oxolupa-1,20(29)-dien-28-oic acid], for which the pIC50 is 4.85 in experiment [1] (Table 1); 4.86 in experiment [1] (full Table S1); 5.08 in the experiment with DU-145 (prostate cancer) (Table 1); below 4.30 in experiment [2] (Table 1); 5.06 with K562-TAX (Table 1); 4.72 in the experiment on HCT 116 (Table 1). Moreover, the pIC50 in the experiment on HCT 116 (full Table S1) is 4.73; with HCT116 p53–/– (Table 1), 4.51; with HCT116 p53–/– (full Table S1), 4.51; in the experiment on U2OS (Table 1), 4.60; in the experiment on U2OS (full Table S1), 4.61; in the experiment on CCRF-CEM (Table 1) it was 5.14. The pIC50 in the experiment on CEM-DNR (Table 1) is 4.77; in experiment [3] (Table 1), below 4.30; in the experiment on MRC-5 lung fibroblasts (Table 1), below 4.30. Also, the “SI (selectivity index)” value in the experiment on CCRF-CEM (Table 1) is listed as above 7.0. Also, the “IC50 BJ” value in [3] (Table 1) was “below the detection limit”. Also, the “IC50 MRC-5” value in the experiment on MRC-5 lung fibroblasts (Table 1) is recorded as “below the detection limit”.
As to `C=C(C)[C@@H]1CC[C@]2(C(=O)O)CC[C@]3(C)C(CCC4[C@@]5(C)C=C(c6ccc7cn[nH]c7c6)C(=O)C(C)(C)C5CC[C@]43C)C12` (some centres unmarked) [Compound 11n, 2-(Indazol-6-yl)-3-oxolupa-1,20(29)-dien-28-oic acid], the pIC50 in experiment [1] (Table 1) is 4.82; in experiment [1] (full Table S1), 4.82; in the experiment on DU-145 (prostate cancer) (Table 1) it was 5.08; in experiment [2] (Table 1), 4.66; in [2] (full Table S1), 4.65; in the experiment with K562-TAX (Table 1), 4.92. Also, the pIC50 is 4.92 with K562-TAX (full Table S1); 4.82 in the experiment with HCT 116 (Table 1); 4.83 with HCT 116 (full Table S1); 4.77 in the experiment with HCT116 p53–/– (Table 1); 4.77 in the experiment on HCT116 p53–/– (full Table S1); 4.68 with U2OS (Table 1). For the same molecule, the negative-log IC50 (pIC50) in the experiment on U2OS (full Table S1) was 4.69; in the experiment on CCRF-CEM (Table 1), 5.31; in the experiment with CEM-DNR (Table 1), 4.66; with CEM-DNR (full Table S1), 4.66; in experiment [3] (Table 1), 4.46; in experiment [3] (full Table S1), 4.45. Moreover, the pIC50 was 4.57 in the experiment with MRC-5 lung fibroblasts (Table 1) and 4.58 in the experiment with MRC-5 lung fibroblasts (full Table S1). The “SI (selectivity index)” value in the experiment on CCRF-CEM (Table 1) is 6.3.
